Test results: PubChem BioAssay (NCI)
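A five-concentration, 48-hour dose response in 96-well plates underlies each endpoint, interpolated linearly between surrounding concentrations. GI50: concentration for 50% inhibition of growth. Definition used: TGI = concentration required for complete inhibition of growth.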

What was measured:
Assay in all cases: growth of human tumour cells (NCI), 48 h
UACC-257 melanoma = tested on: UACC-257 melanoma
SF-295 CNS = tested on: SF-295 CNS
HCC-2998 colon = tested on: HCC-2998 colon
SN12C renal = tested on: SN12C renal
NCI-H226 lung = tested on: NCI-H226 lung
CCRF-CEM leukemia = tested on: CCRF-CEM leukemia
NCI-H522 lung = tested on: NCI-H522 lung

| Structure (SMILES) | TGI (UACC-257 melanoma) [µM] | TGI (SF-295 CNS) [µM] | TGI (HCC-2998 colon) [µM] | TGI (SN12C renal) [µM] | TGI (NCI-H226 lung) [µM] | TGI (CCRF-CEM leukemia) [µM] | TGI (NCI-H522 lung) [µM] | GI50 (UACC-257 melanoma) [µM] | GI50 (SF-295 CNS) [µM] | GI50 (SN12C renal) [µM] | GI50 (NCI-H226 lung) [µM] | GI50 (CCRF-CEM leukemia) [µM] | GI50 (HCC-2998 colon) [µM] | GI50 (NCI-H522 lung) [µM] |
| --- | --- | --- | --- | --- | --- | --- | --- | --- | --- | --- | --- | --- | --- | --- |
| CC1CCC2(NC1)OC1CC3[C@@H]4CC=C5C=CCC[C@]5(C)C4CC[C@]3(C)C1C2C (stereo not given in full) | 49 | 52.8 | 31.4 | 85.8 | > 100 | 55.4 |  |  |  |  |  |  |  |  |
| CC(=O)O[C@H]1CC[C@@]2(C)C(CC[C@]3(C)C2CC[C@]2(C)Oc4c(C)cc(O)cc4C[C@@H]23)C1(C)C (stereo not given in full) | 22.8 | 5.09 | 22.2 |  | 35.3 | 16.8 | 21.5 |  |  |  |  |  |  |  |
| O=c1[nH]c(=O)n(C2CC(O)C(CO)O2)cc1C(OCC(F)(F)F)OCC(F)(F)F (stereo not given) | > 100 | > 100 | > 100 | > 100 |  | > 100 | > 100 |  |  |  |  |  |  |  |
| OCCN(CCO)c1cccc(N(CCO)CCO)c1 | > 100 | > 100 |  |  |  | > 100 | > 100 |  |  |  |  |  |  |  |
| CS(=O)(=O)N(CCC#N)c1ccc(/C=N/NC(=O)CC(=O)Nc2cccc(Cl)c2)cc1 | > 100 | > 100 | > 100 | > 100 | > 100 | > 100 | > 100 |  |  |  |  |  |  |  |
| Cc1cc2c(cc1C)[n+](=O)c(C(=O)/C=C/c1ccc(Cl)cc1)c(C)n2[O-] | 89.9 | 69.3 | 46.1 | > 100 | > 100 | > 100 | 50.4 |  |  |  |  |  |  |  |
| O=C(O)CNS(=O)(=O)c1ccc(NC(=O)c2ccc(F)cc2)cc1 | > 100 | > 100 | > 100 | > 100 |  | > 100 |  |  |  |  |  |  |  |  |
| N#CCCN(CCC#N)c1ccc(/C=C2\N=C(COc3ccc(Cl)cc3Cl)OC2=O)cc1 | > 100 | > 100 | > 100 | > 100 |  | > 100 | > 100 |  |  |  |  |  |  |  |
| O=c1[nH]c(-c2ccccc2)nc2ccc(Cl)cc12 | > 100 | > 100 | > 100 | > 100 | > 100 |  | 95.7 |  |  |  |  |  |  |  |
| O=C(CC1(O)C(=O)Nc2ccc(Br)cc21)c1ccc(Cl)cc1 (stereo not given) | 98 | > 100 |  | > 100 | > 100 | > 100 | > 100 |  |  |  |  |  |  |  |
| NC1CCCCC1N.O=C([O-])P(=O)([O-])[O-].[Na+].[Pt+4] (stereo not given) | > 100 | > 100 |  | > 100 | > 100 | > 100 |  | > 100 | > 100 | > 100 | > 100 | > 100 |  |  |
| O=S(=O)([O-])[O-].[Cl-].[NH2-].[NH2-].[NH2-].[NH2-].[Ru+3].c1ccc(-c2cccnc2)cc1 | > 100 | > 100 | > 100 | > 100 | > 100 | > 100 | > 100 | > 100 | > 100 | > 100 | > 100 | > 100 | > 100 | > 100 |
| CCNc1c(C(=O)N(CC)CC)c(=O)[nH]c2ncccc12 | > 100 | > 100 | > 100 | > 100 | > 100 | > 100 | > 100 |  |  |  |  |  |  |  |
| CS(=O)(=O)OCCN1CCN(C(=O)c2cccc3c(Nc4ccc(S(N)(=O)=O)cc4)c4ccccc4nc23)CC1 | > 100 | > 100 | > 100 | > 100 | > 100 | > 63 | > 100 |  |  |  |  |  |  |  |
| CCN(CC)c1ccc(N=C2C=CC(=O)c3ncccc32)c(C)c1 | 15 | 22.9 | 24.2 | 20.1 | 38.8 | 14.6 |  |  |  |  |  |  |  |  |
| CC(C)COC(=O)N1N=NC2C3OC(CC3=O)C21 (stereo not given) | > 100 | > 100 | > 100 | > 100 | > 100 | > 100 | > 100 |  |  |  |  |  |  |  |
| Cn1ccnc1C(c1nccn1C)C(C)(C)[N+](=O)[O-] | > 100 | > 100 | > 100 | > 100 |  | > 100 | > 100 |  |  |  |  |  |  |  |
| CN(C)c1ccc(/C=C/C(=O)C(C)(C)C)cc1Br | 61.9 | > 100 | 73.9 | 76 |  | 85.1 | 31.9 |  |  |  |  |  |  |  |
| O=C1CCC2CCc3cccc4oc1c2c34 (stereo not given) | > 100 | 84.1 | > 100 | > 100 |  | > 100 |  |  |  |  |  |  |  |  |
| COc1ccccc1/C=C1\CCC(CNc2ccc(Cl)cc2)C1=O (stereo not given) | 26.7 | 15.4 | 18.8 | 26.5 | 28.3 | 19.7 | 4.45 |  |  |  |  |  |  |  |
| CCN(CC)CC(=O)/C=C/c1ccc(C)cc1 | 46 | 88.1 | 31.7 | 33.4 | 53.8 |  |  |  |  |  |  |  |  |  |
| Oc1ccc2occ3c2c1CCC3 | > 100 | > 100 | > 100 | > 100 |  | > 100 |  |  |  |  |  |  |  |  |
| C=CCC12CCC(=O)C=C1CCC1(C2)OCCO1 (stereo not given) | > 100 |  | > 100 | > 100 | > 100 | > 100 | > 100 |  |  |  |  |  |  |  |
